# Source: PubChem BioAssay AID1963974 (Molecular Pharmacology Branch, DTP, NCI, 2024)
# pIC50: −log10 of the molar value. Values joined by “and” are separate entries in the source; they are usually repeats but may differ in a detail not shown here. Equal values may be shown once.
# Test system: 648629-189-R-J1-PDC spheroids with HUVEC/MSC, viability
# Test: Anticancer human tumor 648629-189-R-J1-PDC patient-derived bladder carcinoma cell line growth inhibition [PI3K]
# Details: for viability, T/C: stronger effect = lower value
# Description: Combinatorial screen of targeted agents with the PI3K inhibitors inavolisib, alpelisib, duvelisib, and copanlisib in multi-cell type tumor spheroids
# A high-throughput screen of multi-cell type tumor spheroids was designed to identify active combinations of targeted small molecules and PI3K pathway inhibitors. Complex spheroids include a stromal component modeled by human endothelial cells (HUVEC) and fibroblasts modeled by human mesenchymal stem cells (MSCs). The concentration ranges selected for each drug and investigational agent were based upon clinically achievable concentrations if the clinical Cmax of the agent was known.
# Compounds. The drugs and investigational agents: inavolisib (NSC800729), alpelisib (NSC765974), duvelisib (NSC772469), copanlisib (NSC816437), ipatasertib (NSC767898), afuresertib (NSC778305), talazoparib (NSC767125), sapanisertib (NSC764658), selumetinib (NSC741078), tovorafenib (DAY101, NSC766906), vemurafenib (NSC761431), ravoxertinib (NSC781343), sotorasib (NSC818433), MRTX1133 (NSC 836407), abemaciclib (NSC 768073), palbociclib (NSC758247), venetoclax (NSC 766270), SY5609 (NSC837396), enzalutamide (NSC755605), and darolutamide (NSC825331), were obtained from the National Cancer Institute (NCI) Developmental Therapeutics Program Chemical Repository. The FDA-approved anticancer drug set is available from the NCI Developmental Therapeutics Program. […] The stock solutions were prepared in dimethyl sulfoxide (DMSO, Sigma-Aldrich, St. Louis, MO, cat. D2650) at 800-fold the tested concentration and stored at -70 degrees C prior to their use. All drugs and investigational agents were tested over a range starting from a high concentration at or near the clinical Cmax and decreasing in half-log increments. If the clinical Cmax for an agent had not been determined, the highest concentration tested was 10 microM.
# Cell Culture. All cells were maintained in an incubator at 37 degrees C and 5% CO2 with 95% humidity. The PDC lines were cultured according to standard operating procedures established by the NCI PDMR (https://pdmr.cancer.gov/sops/default.htm). All PDCs were thawed and cultured in Matrigel-coated flasks prepared with a working solution of 1X Ham's F-12 nutrient mix, without supplementation (Invitrogen, Waltham, MA, cat. 11765054), 100 U/mL penicillin-streptomycin (Invitrogen, cat. 15140122), and 2.5% Matrigel (Corning Inc., Corning, NY, cat. 354248) for the first three passages. The 354836-022-R-J1-PDC, 475296-252-R-J1-PDC, and 997726-040-R-J2-PDC lines were cultured in 6A media, which includes advanced DMEM/F-12 (Thermo Fisher Scientific, cat. 12634028), 10 mM HEPES (Thermo Fisher Scientific, cat. 15630080), 1X GlutaMAX supplement (Thermo Fisher Scientific, cat. 35050061), 0.1 mg/mL primocin (InvivoGen, San Diego, CA, cat. ant-pm-2), 10% defined fetal bovine serum, heat inactivated (HyClone Laboratories Inc., Logan, UT, cat. SH30070.03HI), 50% L-WRN conditioned media (ATCC, cat. CRL-3276), 1.25 mM N-Acetyl-L-cysteine (Sigma-Aldrich, cat. A9165), 10 mM nicotinamide (Sigma-Aldrich, cat. N0636), 1X B-27 supplement (Thermo Fisher Scientific, cat. 17504044), 1X N-2 supplement (Thermo Fisher Scientific, cat. 17502048), and 10 microM Y-27632 dihydrochloride (Tocris Bioscience, Bristol, United Kingdom, cat. 1254). The 624824-186-R-J2-PDC line was cultured in 6C/Colon 1B media, which includes all 6A media components plus 50 ng/mL human EGF recombinant protein (Thermo Fisher Scientific, cat. PHG0311). […]
# [1] = curve of first compound, second compound 0.0316 µM
# [2] = curve of first compound, second compound 0.1 µM
# [3] = curve of first compound, second compound 0.316 µM
# [4] = curve of first compound, second compound 1 µM
# [5] = second compound 0.0316 µM, first compound 0.0316 µM
# [6] = second compound 0.0316 µM, first compound 0.1 µM
# [7] = second compound 0.1 µM, first compound 0.0316 µM
# [8] = second compound 0.1 µM, first compound 0.1 µM
# [9] = second compound 0.316 µM, first compound 0.0316 µM
# [10] = second compound 0.316 µM, first compound 0.1 µM
# [11] = second compound 1 µM, first compound 0.0316 µM
# [12] = second compound 1 µM, first compound 0.1 µM
# 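Note: spheroids exposed to agents for seven days before reading.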
# 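Throughout, for viability, T/C: percent of vehicle control luminescence where 100% = DMSO treated spheroids.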
smiles,measurement,setting,value
Cn1ncnc1[C@H]1c2n[nH]c(=O)c3cc(F)cc(c23)N[C@@H]1c1ccc(F)cc1 + Cc1nc(NC(=O)N2CCCC2C(N)=O)sc1-c1ccnc(C(C)(C)C(F)(F)F)c1,pIC50,[1],< 7.00
same,pIC50,[2],< 7.00
same,pIC50,[3],< 7.00
same,pIC50,[4],7.05
same,pIC50,"curve of first compound, second compound 3.16 µM",7.80
same,pIC50,"curve of first compound, second compound 10 µM",> 9.50
same,"viability, T/C","second compound 0.0316 µM, first compound 0.000316 µM",117%
same,"viability, T/C","second compound 0.0316 µM, first compound 0.001 µM",101%
same,"viability, T/C","second compound 0.0316 µM, first compound 0.00316 µM",91.2%
same,"viability, T/C","second compound 0.0316 µM, first compound 0.01 µM",82.1%
same,"viability, T/C",[5],83.4%
same,"viability, T/C",[6],64.7%
same,"viability, T/C","second compound 0.1 µM, first compound 0.000316 µM",115%
same,"viability, T/C","second compound 0.1 µM, first compound 0.001 µM",96.9%
same,"viability, T/C","second compound 0.1 µM, first compound 0.00316 µM",93.5%
same,"viability, T/C","second compound 0.1 µM, first compound 0.01 µM",77.8%
same,"viability, T/C",[7],80.4%
same,"viability, T/C",[8],58.6%
same,"viability, T/C","second compound 0.316 µM, first compound 0.000316 µM",85.8%
same,"viability, T/C","second compound 0.316 µM, first compound 0.001 µM",94.5%
same,"viability, T/C","second compound 0.316 µM, first compound 0.00316 µM",90.8%
same,"viability, T/C","second compound 0.316 µM, first compound 0.01 µM",78.3%
same,"viability, T/C",[9],68.2%
same,"viability, T/C",[10],52.7%
same,"viability, T/C","second compound 1 µM, first compound 0.000316 µM",73.8%
same,"viability, T/C","second compound 1 µM, first compound 0.001 µM",74.8%
same,"viability, T/C","second compound 1 µM, first compound 0.00316 µM",70.6%
same,"viability, T/C","second compound 1 µM, first compound 0.01 µM",74.9%
same,"viability, T/C",[11],60.8%
same,"viability, T/C",[12],48.8%
same,"viability, T/C","second compound 3.16 µM, first compound 0.000316 µM",64.4%
same,"viability, T/C","second compound 3.16 µM, first compound 0.001 µM",57.6%
same,"viability, T/C","second compound 3.16 µM, first compound 0.00316 µM",58.4%
same,"viability, T/C","second compound 3.16 µM, first compound 0.01 µM",48.7%
same,"viability, T/C","second compound 3.16 µM, first compound 0.0316 µM",49.7%
same,"viability, T/C","second compound 3.16 µM, first compound 0.1 µM",43.5%
same,"viability, T/C","second compound 10 µM, first compound 0.000316 µM",40.6%
same,"viability, T/C","second compound 10 µM, first compound 0.001 µM",36.1%
same,"viability, T/C","second compound 10 µM, first compound 0.00316 µM",39.7%
same,"viability, T/C","second compound 10 µM, first compound 0.01 µM",35%
same,"viability, T/C","second compound 10 µM, first compound 0.0316 µM",29.7%
same,"viability, T/C","second compound 10 µM, first compound 0.1 µM",28.5%
CC1(C)CCC(CN2CCN(c3ccc(C(=O)NS(=O)(=O)c4ccc(NCC5CCOCC5)c([N+](=O)[O-])c4)c(Oc4cnc5[nH]ccc5c4)c3)CC2)=C(c2ccc(Cl)cc2)C1,"viability, T/C",compound 0.0316 µM,102% (2×) and 94.5% and 111%
same,"viability, T/C",compound 0.1 µM,101% (2×) and 96.3% and 98.1%
same,"viability, T/C",compound 0.316 µM,110% [middle of 4 runs]
same,"viability, T/C",compound 1 µM,98.5% [middle of 4 runs]
same,"viability, T/C",compound 3.16 µM,89% [middle of 4 runs]
same,pIC50,curve of compound,< 5.00 and 5.31 and 5.28
CC(Cn1ccc(-c2ccc(C#N)c(Cl)c2)n1)NC(=O)c1cc(C(C)O)[nH]n1 (stereo not given) + COc1c(OCCCN2CCOCC2)ccc2c3n(c(=NC(=O)c4cnc(N)nc4)nc12)CCN3,pIC50,"curve of first compound, second compound 0.00316 µM",< 5.00
same,pIC50,"curve of first compound, second compound 0.01 µM",< 5.00
same,pIC50,[1],< 5.00
same,pIC50,[2],< 5.00
same,pIC50,[3],> 7.50
same,pIC50,[4],> 7.50
same,"viability, T/C","second compound 0.00316 µM, first compound 0.0316 µM",94.9%
same,"viability, T/C","second compound 0.00316 µM, first compound 0.1 µM",92.4%
same,"viability, T/C","second compound 0.00316 µM, first compound 0.316 µM",97.9%
same,"viability, T/C","second compound 0.00316 µM, first compound 1 µM",96.4%
same,"viability, T/C","second compound 0.00316 µM, first compound 3.16 µM",83.8%
same,"viability, T/C","second compound 0.00316 µM, first compound 10 µM",73.9%
same,"viability, T/C","second compound 0.01 µM, first compound 0.0316 µM",100%
same,"viability, T/C","second compound 0.01 µM, first compound 0.1 µM",105%
same,"viability, T/C","second compound 0.01 µM, first compound 0.316 µM",102%
same,"viability, T/C","second compound 0.01 µM, first compound 1 µM",92.7%
same,"viability, T/C","second compound 0.01 µM, first compound 3.16 µM",89.1%
same,"viability, T/C","second compound 0.01 µM, first compound 10 µM",74.3%
same,"viability, T/C",[5],96.5%
same,"viability, T/C",[6],93.5%
same,"viability, T/C","second compound 0.0316 µM, first compound 0.316 µM",95.8%
same,"viability, T/C","second compound 0.0316 µM, first compound 1 µM",90.4%
same,"viability, T/C","second compound 0.0316 µM, first compound 3.16 µM",86.5%
same,"viability, T/C","second compound 0.0316 µM, first compound 10 µM",70.8%
same,"viability, T/C",[7],65.9%
same,"viability, T/C",[8],64.1%
same,"viability, T/C","second compound 0.1 µM, first compound 0.316 µM",77.5%
same,"viability, T/C","second compound 0.1 µM, first compound 1 µM",65.5%
same,"viability, T/C","second compound 0.1 µM, first compound 3.16 µM",64%
same,"viability, T/C","second compound 0.1 µM, first compound 10 µM",61.5%
same,"viability, T/C",[9],23%
same,"viability, T/C",[10],18.7%
same,"viability, T/C","second compound 0.316 µM, first compound 0.316 µM",22.9%
same,"viability, T/C","second compound 0.316 µM, first compound 1 µM",23.2%
same,"viability, T/C","second compound 0.316 µM, first compound 3.16 µM",26.4%
same,"viability, T/C","second compound 0.316 µM, first compound 10 µM",21.3%
same,"viability, T/C",[11],3.56%
same,"viability, T/C",[12],3.29%
same,"viability, T/C","second compound 1 µM, first compound 0.316 µM",3.07%
same,"viability, T/C","second compound 1 µM, first compound 1 µM",3.97%
same,"viability, T/C","second compound 1 µM, first compound 3.16 µM",4.94%
same,"viability, T/C","second compound 1 µM, first compound 10 µM",2.75%
